Test results: US20260317367A1, “SALTS INCLUDING CRYSTALLINE SALTS OF 25-HYDROXY-CHOLEST-5-EN-3-SULFATE AND METHODS FOR PREPARING SAME” (Durect Corporation, priority 2022, published 2026)
Where a name gives a salt, the structure may show the parent alone. One block for each molecule: values may come before it.

Experiments:
Format in all cases: physicochemical
[1] = Appearance (color, clumping, flowability) of stored 25HC3S salts
[2] = Overall rank order of powder flowability (angle of repose and Hausner ratio); settings: for Powder flowability, overall (in words): angle of repose and compressibility index/Hausner ratio combined; for Angle of Repose Rank Order / Hausner Ratio Rank Order / Overall Rank Order (Total Score): lower is better flow; for Overall Rank Order (Total Score): sum of both ranks
Text: Table C5 was generated by adding the relative rank order of the 25HC3S salts for angle of repose and Hausner ratio results, and creating an Over All Rank Order of the salts powder flowability. The salts with the lower overall rank order score had better powder flowability.

[3] = Hausner ratio and compressibility index of 25HC3S salts; settings: for Compressibility Index: Table C3 heads this index in %
Method in brief: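 Powder poured into a 5 mL graduated cylinder to about 5.0 mL (Vo), tapped 200 then 100 more times on a hard surface; final volume Vf recorded after 300 taps. Compressibility index and Hausner ratio calculated from Vo and Vf; flow character classed per USP <1174>.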

[4] = Solid-state chemical stability of 25HC3S salts at 2-8° C., 60° C. and 80° C. (HPLC assay and degradation products); settings: for % Impurities, Total / % Impurities, 25-HC: ND = Not Detected; for % Impurities, 25-HC: 25-Hydroxy-Cholesterol; for % Recovery: vs 2-8° C.; for Stability after 1 week at 60° C. (in words): 1 week (after 3 weeks at 2-8° C.)
Method in brief: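 Crystalline 25HC3S salts (~25 mg powder per vial) stored at 2-8° C. or 80° C., pulled at 3 and 6 weeks; some 3-week 2-8° C. vials moved to 60° C. for 1 week. Dissolved in 100% methanol (sonication/vortexing, centrifugation or dilution), then HPLC against 25HC3S sodium standards (0.75-1.25 mg/mL) for assay and degradants.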

[5] = Solubility of 25HC3S salts after one day at room temperature (HPLC, as free acid); settings: one day
Method in brief: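 25HC3S salts were shaken with excess solid at room temperature for one day in organic solvents or aqueous/biorelevant media (FaSSIF, FeSSIF, FaSSGF), then centrifuged. Supernatants were assayed by HPLC against a free-acid standard curve (11 μg/mL to 1.5 mg/mL); values are mg/mL free acid, LOD 0.0007 mg/mL.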

[6] = 2-8° C., 3 wk, listed as 25HC3S potassium
[7] = 80° C., 3 wk, listed as 25HC3S potassium
[8] = 60° C., 1 wk, listed as 25HC3S potassium
[9] = room temperature, listed as crystalline 25HC3S potassium
[10] = 2-8° C., 3 wk, listed as 25HC3S tromethammonium
[11] = 80° C., 3 wk, listed as 25HC3S tromethammonium
[12] = listed as 25HC3S tromethammonium
[13] = 80° C., 5 wk, listed as 25HC3S tromethammonium
[14] = 80° C., 5 wk, 50400 min, listed as 25HC3S tromethammonium
[15] = 2-8° C., 3 wk, listed as 25HC3S calcium
[16] = 80° C., 3 wk, listed as 25HC3S calcium
[17] = room temperature, listed as crystalline 25HC3S calcium

Appearance [1, 6]: White, free flowing powder with some
Appearance ([1]; 60° C., 1 wk (after 3 weeks at 2-8° C.), listed as 25HC3S potassium): White, free flowing powder with some
Appearance after 3 weeks at 80° C. ([1]; 80° C.): completely burned
Appearance [1, 7]: Dark brown powder, stuck to bottom of
Powder flowability, overall (in words) ([2]; listed as potassium): top three
Angle of Repose Rank Order ([2]; listed as 25HC3S potassium): 6
Hausner Ratio Rank Order ([2]; listed as 25HC3S potassium): 3
Overall Rank Order (Total Score) ([2]; listed as 25HC3S potassium): 9
Compressibility Index ([3]; listed as 25HC3S potassium): 26
Hausner Ratio ([3]; listed as 25HC3S potassium): 1.35
% Impurities, Total [4, 6]: 1.3%
% Impurities, 25-HC [4, 6]: 0.2%
% Impurities, 25-HC [4, 8]: 0.3%
Physical and chemical solid-state stability (comments) ([4]; 60° C., 1 week, listed as 25HC3S Potassium): Stable after 1 week at 60 C.
Assay ([4]; 60° C., 1 wk (after 3 weeks at 2-8° C.), 10080 min, listed as 25HC3S potassium, 10080 min): 103.1 % w/w
% Recovery of 2-8° C./3 wk vs 60° C./1 wk ([4]; 60° C., 1 wk, 10080 min, listed as 25HC3S potassium): 105.4%
% Impurities, Total [4, 8]: 1.6%
Physical and chemical solid-state stability (comments) ([4]; 80° C., 3 weeks, listed as 25HC3S Potassium): totally decomposed after 3 weeks
% Recovery ([4]; 80° C., 3 wk, 30240 min, listed as 25HC3S potassium, 30240 min): 0.0%
Assay ([4]; 80° C., 3 wk, 30240 min, listed as 25HC3S potassium): 0.0 % w/w
% Impurities, Total [4, 7]: 100%
remaining at 504 h ([4]; solid state, 2-8° C., 3 wk, read-out: Assay): 97.8%
Stability after 1 week at 60° C. (in words) ([4]; solid state, 60° C.): stable
Stability after 3 weeks at 80° C. (in words) ([4]; solid state, 80° C., 3 weeks): totally decomposed
Solubility in FaSSGF (in words) [5, 9]: low solubility
Solubility in FaSSGF ([5]; Fasted State Simulated Gastric Fluid, pH 1.6, room temperature, as free acid, LOD 0.0007 mg/mL, 1440 min): 2 µg/mL
Solubility in saline / 0.9% sodium chloride (in words) [5, 9]: low solubility
SMILES: CC(CCCC(C)(C)O)C1CCC2C3CC=C4CC(OS(=O)(=O)O)CCC4(C)C3CCC12C (stereo not drawn) [Salt #1]

Appearance [1, 10]: White, free flowing powder with clumping
Appearance ([1]; 2-8° C., 5 wk): White, free flowing powder with clumping
Appearance [1, 11]: White, free flowing powder with clumping
Appearance ([1]; 80° C., 5 wk): White, free flowing powder with clumping
Powder flowability, overall (in words) ([2]; listed as tromethammonium): next group
Angle of Repose Rank Order [2, 12]: 8
Hausner Ratio Rank Order [2, 12]: 6
Overall Rank Order (Total Score) [2, 12]: 14
Compressibility Index [3, 12]: 28
Hausner Ratio [3, 12]: 1.39
Assay ([4]; 2-8° C., 3 wk, 30240 min, listed as 25HC3S tromethammonium): 99.4 % w/w
% Impurities, Total [4, 10]: 0.9%
Assay ([4]; 2-8° C., 5 wk, 50400 min, listed as 25HC3S tromethammonium): 105.4 % w/w
% Impurities, Total ([4]; 2-8° C., 5 wk, listed as 25HC3S tromethammonium): 0.7%
% Impurities, 25-HC [4, 10]: 0.1%
% Impurities, 25-HC [4, 11]: 0.1%
% Impurities, 25-HC [4, 13]: 2.1%
Stressed stability at 80° C. (in words) ([4]; 80° C.): good, stressed stability
Physical and chemical solid-state stability (comments) ([4]; 80° C., 3 weeks, listed as 25HC3S Tromethammonium): Stable after 3 weeks at 80 °C
% Recovery ([4]; 80° C., 3 wk, 30240 min, listed as 25HC3S tromethammonium, 30240 min): 99.8%
Assay ([4]; 80° C., 3 wk, 30240 min, listed as 25HC3S tromethammonium): 99.2 % w/w
% Impurities, Total [4, 11]: 1.2%
% Recovery, 2-8° C./5 wk vs 80° C./5 wk [4, 14]: 91.1%
Assay [4, 14]: 96.0 % w/w
% Impurities, Total [4, 13]: 12.3%
Stability after 3 weeks at 80° C. (in words) ([4]; solid state, 80° C., 3 weeks): stable
degraded at 840 h ([4]; solid state, 80° C., 5 weeks, read-out: Degradation based on % Recovery to the 2-8° C. control samples): ~9%
Solubility in FaSSGF (in words) ([5]; room temperature): high solubility
Solubility in FaSSIF (in words) ([5]; room temperature): high solubility
Solubility in FeSSIF (in words) ([5]; FeSSIF, room temperature): high solubility
Solubility in saline / 0.9% sodium chloride (in words) ([5]; room temperature, listed as crystalline 25HC3S tromethammonium): low solubility
SMILES: CC(CCCC(C)(C)O)C1CCC2C3CC=C4CC(OS(=O)(=O)O)CCC4(C)C3CCC12C (stereo not drawn) [Salt #8]

Appearance [1, 15]: White, free flowing powder with some
Appearance ([1]; 60° C., 1 wk (after 3 weeks at 2-8° C.), listed as 25HC3S calcium): Brown, melted material stuck to bottom
Appearance after 3 weeks at 80° C. ([1]; 80° C.): completely burned
Appearance [1, 16]: Dark brown, melted material stuck to
Powder flowability, overall (in words) ([2]; listed as calcium): poorer flowability
Angle of Repose Rank Order ([2]; listed as 25HC3S calcium): 11
Hausner Ratio Rank Order ([2]; listed as 25HC3S calcium): 11
Overall Rank Order (Total Score) ([2]; listed as 25HC3S calcium): 22
Compressibility Index ([3]; listed as 25HC3S calcium): 36
Hausner Ratio ([3]; listed as 25HC3S calcium): 1.56
Assay ([4]; 2-8° C., 3 wk, 30240 min, listed as 25HC3S calcium): 92.9 % w/w
% Impurities, Total [4, 15]: 1.6%
Overall physical and chemical stability (in words) ([4]; 2-8° C., 60° C., 80° C.): least physically and chemically stable
Overall physical and chemical stability (in words) ([4]; 2-8° C., 60° C., 80° C., listed as 25HC35S calcium): least stable
% Impurities, 25-HC [4, 15]: 0.2%
Physical and chemical solid-state stability (comments) ([4]; 60° C., 1 week, listed as 25HC3S Calcium): Totally decomposed after 1 week at 60 °C
Assay ([4]; 60° C., 1 wk (after 3 weeks at 2-8° C.), 10080 min, listed as 25HC3S calcium, 10080 min): 0.0 % w/w
% Recovery of 2-8° C./3 wk vs 60° C./1 wk ([4]; 60° C., 1 wk, 10080 min, listed as 25HC3S calcium): 0.0%
% Recovery ([4]; 80° C., 3 wk, 30240 min, listed as 25HC3S calcium, 30240 min): 0.0%
Assay ([4]; 80° C., 3 wk, 30240 min, listed as 25HC3S calcium): 0.0 % w/w
% Impurities, Total [4, 16]: 100%
Stability after 1 week at 60° C. (in words) ([4]; solid state, 60° C.): totally decomposed
Stability after 3 weeks at 80° C. (in words) ([4]; solid state, 80° C., 3 weeks): totally decomposed
Solubility in 5% Dextrose ([5]; 5% dextrose, room temperature, as free acid, LOD 0.0007 mg/mL, 1440 min): 5 µg/mL
Solubility in FaSSGF (in words) [5, 17]: low solubility
Solubility in FaSSIF (in words) [5, 17]: relatively high solubility
Solubility in saline / 0.9% sodium chloride (in words) [5, 17]: low solubility
SMILES: CC(CCCC(C)(C)O)C1CCC2C3CC=C4CC(OS(=O)(=O)O)CCC4(C)C3CCC12C (stereo not drawn) [Salt #2]
Physical and chemical solid-state stability (comments) ([4]; 80° C., 3 weeks, listed as 25HC3S Calcium): Totally decomposed after 1 week at 60 °C and after 3 weeks at 80 °C
degradants dissolved in the diluent (comments) ([4]; after 1 week at 60° C. and 3 weeks at 80° C.): degradants were dissolved in the diluent.extract
